Measured values taken from PubChem BioAssay (NCI).
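Assay format: 96-well plates, 48-hour exposure. GI50: concentration for 50% inhibition of growth. The concentration for full growth arrest is given as TGI.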

Key:
Experiment in all cases: NCI anticancer screen, dose series, 48 h
ACHN renal = system: ACHN renal
HCT-15 colon = system: HCT-15 colon
HOP-62 NSCLC = system: HOP-62 NSCLC
LOX IMVI melanoma = system: LOX IMVI melanoma
NCI-H226 lung = system: NCI-H226 lung
NCI-H23 lung = system: NCI-H23 lung
RPMI-8226 leukemia = system: RPMI-8226 leukemia
SF-539 CNS = system: SF-539 CNS
TK-10 renal = system: TK-10 renal
UO-31 renal = system: UO-31 renal

| SMILES | GI50 (ACHN renal) [µM] | TGI (ACHN renal) [µM] | GI50 (HCT-15 colon) [µM] | TGI (HCT-15 colon) [µM] | GI50 (HOP-62 NSCLC) [µM] | TGI (HOP-62 NSCLC) [µM] | GI50 (LOX IMVI melanoma) [µM] | TGI (LOX IMVI melanoma) [µM] | GI50 (NCI-H226 lung) [µM] | TGI (NCI-H226 lung) [µM] | GI50 (NCI-H23 lung) [µM] | TGI (NCI-H23 lung) [µM] | GI50 (RPMI-8226 leukemia) [µM] | TGI (RPMI-8226 leukemia) [µM] | GI50 (SF-539 CNS) [µM] | TGI (SF-539 CNS) [µM] | GI50 (TK-10 renal) [µM] | TGI (TK-10 renal) [µM] | GI50 (UO-31 renal) [µM] | TGI (UO-31 renal) [µM] |
| --- | --- | --- | --- | --- | --- | --- | --- | --- | --- | --- | --- | --- | --- | --- | --- | --- | --- | --- | --- | --- |
| N.N.N.N.N.N.[I-].[Os] | > 100 | > 100 | > 100 | > 100 | > 100 | > 100 | > 100 | > 100 | > 100 | > 100 | > 100 | > 100 | > 100 | > 100 | > 100 | > 100 | > 100 | > 100 | > 100 | > 100 |
| Nc1ncnc2c1nc(-c1ccccc1)n2C1OC(CO)C(O)C1O (stereo unspecified) | – | > 100 | – | > 100 | – | > 100 | – | > 100 | – | > 100 | – | > 100 | – | > 100 | – | > 100 | – | > 100 | – | > 100 |
| CN(C)C(=O)/N=c1\ss/c(=N\C(=S)N(C)C)n1-c1ccccc1 | – | > 100 | – | > 100 | – | > 100 | – | > 46 | – | > 100 | – | > 100 | 0.291 | > 100 | – | > 78.4 | – | 84.7 | – | > 100 |
| O=C(Nc1n[nH]c2nc(-c3ccco3)ccc12)C1CC1 | > 25 | > 25 | > 25 | > 25 | > 25 | > 25 | > 25 | > 25 | > 25 | > 25 | > 25 | > 25 | > 25 | > 25 | > 25 | > 25 | > 25 | > 25 | > 25 | > 25 |
| c1cc(OCCN2CCCCCC2)ccc1CNc1ccc2nc(CCC3CCCCC3)[nH]c2c1 | 2.68 | 7.97 | 1.59 | 3.67 | 1.85 | 3.81 | 1.74 | 3.2 | 1.88 | 5.19 | 2.36 | 6.62 | 1.5 | 3.79 | 1.63 | 3.11 | 3.18 | 10.9 | 1.37 | 2.72 |
| C/C=C/C=N/N(C(=O)c1cc([N+](=O)[O-])cc([N+](=O)[O-])c1)C1=NC(c2ccccc2)C(c2ccccc2)=NN1 (stereo unspecified) | – | > 100 | – | > 100 | – | > 100 | – | > 100 | – | > 100 | – | 77.9 | – | > 100 | – | > 100 | – | > 100 | – | > 100 |
| CCN(CC)CCOc1ccc(/C(=C(\C)Cc2ccc(OC)cc2)c2ccc(OC(=O)NCc3ccccc3)cc2)cc1 | 1.85 | 3.58 | 1.53 | 3.23 | 2.09 | 4.87 | 1.59 | 3 | 4.71 | 18.7 | 3.24 | 13.3 | 2.13 | 4.4 | 1.75 | 3.19 | 2.68 | 6.77 | 1.52 | 3.02 |
| COc1cc2nc(Sc3c([N+](=O)[O-])ncn3C)[nH]c2cc1OC | – | > 100 | – | > 100 | – | > 100 | – | > 100 | – | > 100 | – | > 100 | – | > 100 | – | 47.5 | – | 67.3 | – | > 100 |
| COC(=O)C(C(=O)C(=O)Nc1ccccc1C(C)=O)c1nc2ccc(Cl)cc2[nH]c1=O (stereo unspecified) | – | > 100 | – | > 100 | – | > 100 | – | > 100 | – | > 100 | – | > 100 | – | > 100 | – | > 100 | – | > 100 | – | > 100 |
| O=C(Nc1nccs1)c1cc2c(cc1Cl)Sc1nccn1S2(=O)=O | 17.7 | 32.2 | 12.2 | 33.9 | 14.8 | 30.2 | 10.9 | 25.6 | 19.6 | 35.6 | 16.9 | 33.7 | 9.29 | 23.6 | 19.4 | 37.5 | 18.9 | 34.4 | 4.41 | 14.7 |
| COC(=O)C1(C(=O)OC)CC2c3c(c4ccccc4n3C)CC(C1=O)N2Cc1ccccc1 (stereo unspecified) | – | > 100 | – | > 100 | – | > 100 | – | > 100 | – | > 100 | – | > 100 | – | > 100 | – | > 100 | – | > 100 | – | > 100 |
| O=C(O)C1NCCc2c1[nH]c1ccccc21 (stereo unspecified) | > 100 | > 100 | > 100 | > 100 | – | > 10 | – | > 100 | – | > 100 | > 100 | > 100 | – | > 10 | > 100 | > 100 | > 100 | > 100 | – | > 100 |
| ClCc1ccc(-c2ccc(Cn3cnc4c(Cl)nc(Cl)nc43)cc2)cc1 | 2.05 | 4.25 | 1.67 | 3.35 | 1.92 | 4 | 1.64 | 3.2 | 8.85 | 28.5 | 3.18 | 14.4 | 2.33 | 5.77 | 2.14 | 4.99 | 2.11 | 4.42 | 3.32 | 8.18 |
| Cn1ncc2c(/N=C/c3cccs3)[nH]c(=S)nc21 | 37.6 | > 80 | 42.4 | > 100 | 52.9 | > 93.8 | 36.4 | > 100 | 10.5 | 40.9 | 33.7 | > 76.1 | 31.6 | > 100 | 32.2 | > 100 | 40.6 | > 85.2 | 58.6 | > 100 |
| Cc1ccccc1NC(=O)C(=O)C(c1cnc2ccc([N+](=O)[O-])cc2n1)[N+](=O)[O-] (stereo unspecified) | – | > 100 | – | > 100 | – | > 100 | – | > 100 | – | > 100 | – | > 100 | – | > 100 | – | > 100 | – | > 100 | – | > 100 |
| C=C1C(=O)O[C@@H]2C(=O)[C@@H](C)[C@@H]3C=CC(=O)[C@@]3(C)[C@@H](OC(=O)/C(C)=C\C)[C@H]12 | – | 0.609 | – | 2.27 | – | 24.8 | – | 1.6 | – | 8.36 | – | 9.8 | – | 1.25 | – | 5.11 | – | 1.74 | – | 2.85 |
